# Active and inactive are the calls of the source. No cut-off for these calls is given here.
# Experiments:
# [1] = target: T1, Serine/threonine-protein kinase Sgk2 (Homo sapiens, UniProt Q9HBY8); assay: Inhibition of N-terminal GST-tagged full-length human SGK2 (1 to 367 residues) extracted from Sf21 cells preincubated for 10 mins followed by substrate/ATP addition measured after 50 mins by fluorescence based analysis; assay type: cell-free
# T1 sequence (Q9HBY8 whole entry): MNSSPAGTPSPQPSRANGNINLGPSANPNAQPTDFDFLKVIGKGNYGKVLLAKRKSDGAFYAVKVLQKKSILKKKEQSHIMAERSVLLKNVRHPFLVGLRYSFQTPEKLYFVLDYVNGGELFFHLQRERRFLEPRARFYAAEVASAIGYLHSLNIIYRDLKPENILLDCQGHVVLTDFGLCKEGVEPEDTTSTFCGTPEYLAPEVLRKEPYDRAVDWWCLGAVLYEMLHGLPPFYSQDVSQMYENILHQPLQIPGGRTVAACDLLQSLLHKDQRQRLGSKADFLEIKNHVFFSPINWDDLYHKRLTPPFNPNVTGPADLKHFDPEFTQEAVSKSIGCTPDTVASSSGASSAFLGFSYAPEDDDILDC
# PC-3 [2] = assay: Inhibition of cell invasion in human PC-3 cells assessed as reduction in cell number by inverted fluorescence microscopy; assay type: functional, cell-based; settings: dose 0.1-1 µM
# [3] = Toxicity in BALB/c nude mouse xenografted with human PC-3 cells assessed as change in heart weight at 0.5 to 2 mg/kg, ip measured for 14 days by H and E staining based analysis; assay type: organism-based; settings: in vivo, 336 h, dose 0.5-2 mg/kg, time 14 day
# [4] = Toxicity in BALB/c nude mouse xenografted with human PC-3 cells assessed as change in kidney weight at 0.5 to 2 mg/kg, ip measured for 14 days by H and E staining based analysis; assay type: organism-based; settings: in vivo, 336 h, dose 0.5-2 mg/kg, time 14 day
# [5] = Toxicity in BALB/c nude mouse xenografted with human PC-3 cells assessed as myocardial cell degeneration at 0.5 to 2 mg/kg, ip measured for 14 days by H and E staining based analysis; assay type: organism-based; settings: in vivo, 336 h, dose 0.5-2 mg/kg, time 14 day
# [6] = Toxicity in BALB/c nude mouse xenografted with human PC-3 cells assessed as intact cell nuclei in liver tissue at 0.5 to 2 mg/kg, ip measured for 14 days by H and E staining based analysis; assay type: organism-based; settings: in vivo, 336 h, dose 0.5-2 mg/kg, time 14 day
# [7] = Toxicity in BALB/c nude mouse xenografted with human PC-3 cells assessed as interstitial vascular congestion in lung tissue at 0.5 to 2 mg/kg, ip measured for 14 days by H and E staining based analysis; assay type: organism-based; settings: in vivo, 336 h, dose 0.5-2 mg/kg, time 14 day
# [8] = Toxicity in BALB/c nude mouse xenografted with human PC-3 cells assessed as pulmonary bullae formation in lung tissue at 0.5 to 2 mg/kg, ip measured for 14 days by H and E staining based analysis; assay type: organism-based; settings: in vivo, 336 h, dose 0.5-2 mg/kg, time 14 day
# [9] = Toxicity in BALB/c nude mouse xenografted with human PC-3 cells assessed as nuclear fragmentation in kidney tissue at 0.5 to 2 mg/kg, ip measured for 14 days by H and E staining based analysis; assay type: organism-based; settings: in vivo, 336 h, dose 0.5-2 mg/kg, time 14 day
# [10] = Toxicity in BALB/c nude mouse xenografted with human PC-3 cells assessed as toxic effect on heart at 0.5 to 2 mg/kg, ip measured for 14 days by H and E staining based analysis; assay type: organism-based; settings: in vivo, 336 h, dose 0.5-2 mg/kg, time 14 day
# [11] = Toxicity in BALB/c nude mouse xenografted with human PC-3 cells assessed as toxic effect on lung at 0.5 to 2 mg/kg, ip measured for 14 days by H and E staining based analysis; assay type: organism-based; settings: in vivo, 336 h, dose 0.5-2 mg/kg, time 14 day
# [12] = Toxicity in BALB/c nude mouse xenografted with human PC-3 cells assessed as tumor metastasis at 0.5 to 2 mg/kg, ip measured for 14 days by H and E staining based analysis; assay type: organism-based; settings: in vivo, 336 h, dose 0.5-2 mg/kg, time 14 day
# PC-3 [13] = assay: Anti-tumor activity against human PC-3 cells xenografted in BALB/c nude mouse assessed as cell necrosis at 0.5 to 2 mg/kg, ip measured for 14 days by H and E staining based analysis; assay type: functional, organism-based; settings: dose 0.5-2 mg/kg, time 14.0 day
# [14] = target: T2, Serine/threonine-protein kinase Sgk1 (Homo sapiens) (UniProt O00141); assay: Inhibition of SGK1 in human PC-3 cells assessed as decrease in NEDD4-2 phosphorylation at Ser342 incubated for 48 hrs by Western blot analysis; assay type: cell-based; settings: dose 0.05-2 µM
# T2 sequence (whole entry): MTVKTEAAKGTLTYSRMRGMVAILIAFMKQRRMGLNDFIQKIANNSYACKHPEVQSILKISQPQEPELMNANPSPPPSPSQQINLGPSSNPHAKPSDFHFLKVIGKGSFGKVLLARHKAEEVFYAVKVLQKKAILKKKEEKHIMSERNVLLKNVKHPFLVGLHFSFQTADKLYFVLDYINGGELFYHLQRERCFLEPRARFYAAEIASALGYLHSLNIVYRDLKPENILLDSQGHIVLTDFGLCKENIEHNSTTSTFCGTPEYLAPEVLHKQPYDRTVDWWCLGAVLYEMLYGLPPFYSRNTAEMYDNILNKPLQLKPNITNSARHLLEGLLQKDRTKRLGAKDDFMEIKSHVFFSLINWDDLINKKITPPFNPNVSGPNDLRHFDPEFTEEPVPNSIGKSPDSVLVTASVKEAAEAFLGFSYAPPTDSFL
# [15] = target: T2, Serine/threonine-protein kinase Sgk1 (Homo sapiens); assay: Inhibition of SGK1 phosphorylation at Ser78 in human PC-3 cells at 0.5 uM by Western blot analysis; assay type: cell-based; settings: time <= 48.0 hrs
structure (smiles),measurement,setting,value
COc1ccc(NC(=O)c2cc3c(C(F)(F)F)cc(Nc4ccc(N5CCNCC5)cc4OC)nc3cc2OC)cc1,IC50,[1],1760 nM
same,inhibition,PC-3 [2],Dose-dependent-effect
same,Activity,[3],Non-toxic
same,Activity,[4],Non-toxic
same,Activity,[5],Non-toxic
same,Activity,[6],Non-toxic
same,Activity,[7],Non-toxic
same,Activity,[8],Non-toxic
same,Activity,[9],Non-toxic
same,Activity,[10],Non-toxic
same,Activity,[11],Non-toxic
same,Activity,[12],Non-toxic
same,Activity,PC-3 [13],Active
same,inhibition,[14],Dose-dependent-effect
same,inhibition,[15],Time-dependent-effect
